Measurements: patent publication US20260198495A1, “BINARY INSECTICIDE COMPOSITION AND USE THEREOF” (SHENYANG SINOCHEM AGROCHEMICALS R & D CO., LTD., priority 2022, published 2026)
Values after ≈ are worked out from the molar mass of the structure shown.

Columns and labels:
Type in all cases: in vivo
[1] = test system: 3rd-instar larvae of Plutella xylostella; assay: Joint toxicity of I-72 + chlorpyrifos, leaf-disk dipping, Example 16, Table 16; conditions: 3rd-instar larvae, cabbage leaf-disk dipping, 72 h, A = compound I-72, B = chlorpyrifos, read-out: LC50
Description: Test target: 3rd-instar larvae of Plutella xylostella.
(§1) Preparation of the pesticide solution: according to different test requirements, the test samples were accurately weighed respectively with an electronic analytical balance. The technical pesticides were dissolved in acetone, and then diluted with 0.1% Tween 80 water into a series of pesticide solutions with a certain concentration gradient according to the experimental design dosage.
Experimental method: first, fresh cabbage leaves cultivated in the greenhouse were selected. The cabbage leaves were made into circular leaf disks with a diameter of 3 cm using a puncher and dipped in the prepared pesticide solution for 10 s in the order from low dosage to high dosage according to the experimental design. After natural air-drying in the shade, they were placed in a 9-cm-diameter Petri dish with filter paper, and uniform and healthy test insects were introduced, with 10 insects for each treatment and 3 replicates for each treatment. In addition, a blank control was set up.
(§2) The treated test materials were placed in an observation room, and the temperature, humidity and illumination of the observation room could be adjusted as needed. […] Then, the co-toxicity coefficient of each ratio was calculated using the Sun Y-P method to evaluate the mixing effect (the same as in Example 1).

[2] = test system: adult Tetranychus cinnabarinus (Boisduval); assay: Joint toxicity of I-72 + pyridaben, Example 84, Table 84; conditions: A = compound I72, B = pyridaben, potted-seedling spraying, 72 hours, read-out: LC50
Description: Test target: adult Tetranychus cinnabarinus (Boisduval), a sensitive strain reared indoors.
as §1
(§3) Experimental method: the activity of the mixture against the adult Tetranychus cinnabarinus (Boisduval) was determined by adopting the potted-seedling spraying method. First, the adult Tetranychus cinnabarinus of uniform size were transferred onto the leaves of kidney bean seedlings at the stage when the first pair of true leaves was fully expanded. After the adult mites had stabilized, the base number was counted. Then, the uniform spraying was performed with the pesticide solution in the order from low to high dose according to the experimental design, with 1.5 mL for each seedling and 3 replicates for each treatment. […]
as §2, with “effect,” for “effect (the same”, “1.” for “1).”

[3] = test system: adult Tetranychus urticae Koch; assay: Joint toxicity of I-72 + cyetpyrafen, Example 85, Table 85; conditions: Tetranychus urticae; A = compound I72, B = cyetpyrafen; potted-seedling spraying; 72 hours; read-out: LC50
Description: Test target: adult Tetranychus urticae Koch, a sensitive strain reared indoors.
as §1
as §3, with “urticae Koch” for “cinnabarinus (Boisduval)”, “urticae Koch” for “cinnabarinus”
as §2

[4] = test system: Bemisia tabaci (Gennadius) nymphs; assay: Joint toxicity of I-72 + bifenthrin, Example 40, Table 40; conditions: A = compound I-72, B = bifenthrin, cotton leaf-disk spraying, 96 hours, read-out: LC50
Description: Test target: Bemisia tabaci (Gennadius) nymphs, a sensitive strain reared indoors.
as §1
Experimental method: first, cotton leaves with neat and consistent Bemisia tabaci (Gennadius) nymphs were selected and made into leaf disks, with about 20 insects on each leaf disk. Then, they were evenly sprayed with the pesticide solution in the order from low dosage to high dosage according to the experimental design, with 1.5 mL for each leaf and 3 replicates for each treatment. In addition, a blank control was set up.
as §2, with “needed. The number of dead and live insects was investigated 96 hours later.” for “needed.”

[5] = test system: Thrips flavus Schrank nymphs; assay: Joint toxicity of I-72 + spirotetramat, Example 26, Table 26; conditions: A = compound I-72, B = spirotetramat, eggplant seedling spraying, 48 hours, read-out: LC50
Description: Test target: Thrips flavus Schrank nymphs.
as §1
Experimental method: first, eggplant seedlings with Thrips flavus Schrank were selected, and the base number was counted. Then, uniform spraying was performed with the pesticide solution in the order from low to high doses according to the experimental design, with 2 mL for each seedling and 3 replicates for each treatment. In addition, a blank control was set up.
as §2, with “needed. The number of dead and live insects was investigated 48 hours later.” for “needed.”

[6] = test system: 3rd-instar larvae of Agrotis ipsilon (Rottemberg); assay: whole plant or invertebrate; conditions: Agrotis ipsilon; A = compound I-72, B = metalaxyl-M; insect-dipping; 72 hours; read-out: LC50
Description: Test conditions: temperature: 24-26° C., humidity: RH 60%, and illumination: L:D=14:10
as §1
The target insects were dipped into the pesticide solution for 10 s and then taken out. Excess pesticide solution was absorbed with filter paper. […] A treatment without the pesticide was set as the blank control.
The number of dead and live insects was investigated 72 hours later. The corrected mortality rate was calculated using the Abbott's formula, and statistical analysis was performed with the DPS data processing software to obtain the toxicity regression equation and LC50 value of each single test pesticide and each mixture of different ratios.

CN(C(=O)c1ccc2c(c1)OC(F)(F)O2)c1cccc(C(=O)Nc2c(Br)cc(C(F)(C(F)(F)F)C(F)(F)F)cc2OC(F)F)c1F [Compound I-72]
LC50 [1]: 0.09 µg/mL
LC50 [2]: 33.5 µg/mL
LC50 [3]: 40.4 µg/mL
LC50 [4]: 10.9 µg/mL
LC50 [5]: 2.04 µg/mL
LC50 [6]: 0.265 µg/mL (≈ 0.357 µM)
